Assay results from PubChem BioAssay AID248 (DTP/NCI, 2004).
“And” between values parts separate entries of the source, which are not always exact repeats. Equal entries are not always repeated. Toxic doses and inconclusive results are not listed. Rule as the data show it: active = T/C of 150% or more; inactive = T/C below 125%.

Test system: L1210 leukemia ip in BDF1 mice, survival T/C
Test: NCI In Vivo Anticancer Drug Screen. Data for tumor model L1210 Leukemia (intraperitoneal) in B6D2F1 (BDF1) mice
Details: endpoint: mean survival time, higher = longer survival
Procedure, shortened: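 In this screen, tumor-bearing mice given compound are compared to those given vehicle, and their survival values are reported as a treated-to-control quotient.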

[1] = dose: 100.0 mg/kg/injection, schedule: Q01DX009 (ip), vehicle: saline with Tween-80
[2] = dose: 100.0 mg/kg/injection, schedule: Q04DX003 (ip), vehicle: saline with Tween-80
[3] = dose: 200.0 mg/kg/injection, schedule: Q01DX009 (ip), vehicle: saline with Tween-80
[4] = dose: 200.0 mg/kg/injection, schedule: Q04DX003 (ip), vehicle: saline with Tween-80
[5] = dose: 400.0 mg/kg/injection, schedule: Q01DX009 (ip), vehicle: saline with Tween-80
[6] = dose: 400.0 mg/kg/injection, schedule: Q04DX003 (ip), vehicle: saline with Tween-80
[7] = dose: 100.0 mg/kg/injection, schedule: Q01DX001 (ip), vehicle: saline with Tween-80
[8] = dose: 200.0 mg/kg/injection, schedule: Q01DX001 (ip), vehicle: saline with Tween-80
[9] = dose: 400.0 mg/kg/injection, schedule: Q01DX001 (ip), vehicle: saline with Tween-80
[10] = dose: 100.0 mg/kg/injection, schedule: Q04DX002 (ip), vehicle: Klucel (hydroxypropylcellulose) (HPC)
[11] = dose: 200.0 mg/kg/injection, schedule: Q04DX002 (ip), vehicle: Klucel (hydroxypropylcellulose) (HPC)
[12] = dose: 400.0 mg/kg/injection, schedule: Q04DX002 (ip), vehicle: Klucel (hydroxypropylcellulose) (HPC)
[13] = dose: 100.0 mg/kg/injection, schedule: Q04DX002 (ip), vehicle: saline
[14] = dose: 200.0 mg/kg/injection, schedule: Q04DX002 (ip), vehicle: saline
[15] = dose: 400.0 mg/kg/injection, schedule: Q04DX002 (ip), vehicle: saline
[16] = dose: 100.0 mg/kg/injection, schedule: Q01DX009 (ip), vehicle: Klucel (hydroxypropylcellulose) (HPC)
[17] = dose: 200.0 mg/kg/injection, schedule: Q01DX009 (ip), vehicle: Klucel (hydroxypropylcellulose) (HPC)
[18] = dose: 400.0 mg/kg/injection, schedule: Q01DX009 (ip), vehicle: Klucel (hydroxypropylcellulose) (HPC)
[19] = dose: 25.0 mg/kg/injection, schedule: Q01DX009 (ip), vehicle: saline
[20] = dose: 25.0 mg/kg/injection, schedule: Q01DX009 (ip), vehicle: saline with Tween-80
[21] = dose: 50.0 mg/kg/injection, schedule: Q01DX009 (ip), vehicle: saline with Tween-80
[22] = dose: 100.0 mg/kg/injection, schedule: Q04DX003 (ip), vehicle: Klucel (hydroxypropylcellulose) (HPC)
[23] = dose: 200.0 mg/kg/injection, schedule: Q04DX003 (ip), vehicle: Klucel (hydroxypropylcellulose) (HPC)
[24] = dose: 400.0 mg/kg/injection, schedule: Q04DX003 (ip), vehicle: Klucel (hydroxypropylcellulose) (HPC)

Measured: T/C

O=C1c2ccccc2C(=O)N1C/C(Cl)=C/Cl
inactive: [1] 92 % of control | [2] 97 % of control | [3] 93 % of control | [4] 93 % of control | [5] 91 % of control | [6] 92 % of control

CCOC(=O)c1[nH]c(C)c(C(=O)OCC)c1-c1ccccc1
inactive: [7] 98 % of control | [8] 106 % of control | [9] 100 % of control

C/C(=N\Sc1cccc([N+](=O)[O-])c1)c1ccccc1O
inactive: [10] 105 % of control | [11] 94 % of control | [12] 94 % of control

CCCCCC1CCCC1
inactive: [13] 94 % of control | [14] 106 % of control | [15] 103 % of control

Cn1ccc2cc(Br)ccc21
inactive: [2] 102 % of control | [4] 101 % of control | [6] 101 % of control

COc1ccc(/C=N/NC(=O)Nc2ccccc2)cc1OC
inactive: [16] 98 % of control | [17] 89 % of control | [18] 93 % of control

C=CCc1ccc(OC(=O)Nc2ccccc2Cl)c(OC)c1
inactive: [10] 96 % of control | [11] 96 % of control | [12] 92 % of control

CC(=O)OCCn1c([N+](=O)[O-])cnc1/C=[N+](/[O-])CCOC(C)=O
inactive: [13] 103 % of control | [14] 92 % of control | [15] 100 % of control

Clc1ccccc1OCCNC1CC1
inactive: dose: 6.25 mg/kg/injection, schedule: Q01DX009 (ip), vehicle: saline 101 % of control | dose: 12.5 mg/kg/injection, schedule: Q01DX009 (ip), vehicle: saline 105 % of control | [19] 97 % of control | dose: 25.0 mg/kg/injection, schedule: Q04DX003 (ip), vehicle: saline 102 % of control | dose: 50.0 mg/kg/injection, schedule: Q01DX009 (ip), vehicle: saline 103 % of control | dose: 50.0 mg/kg/injection, schedule: Q04DX003 (ip), vehicle: saline 100 % of control | dose: 100.0 mg/kg/injection, schedule: Q01DX009 (ip), vehicle: saline 105 % of control | dose: 100.0 mg/kg/injection, schedule: Q04DX003 (ip), vehicle: saline 102 % of control

CCOC(=O)CCc1nc2ccc3ccccc3c2c(=O)[nH]1
inactive: [10] 88 % of control | [11] 91 % of control | [12] 94 % of control

OCCCCN=Cc1ccccc1O.OCCCCN=Cc1ccccc1O.[Cu]
inactive: dose: 9.5 mg/kg/injection, schedule: Q01DX001 (ip), vehicle: other 102 % of control | dose: 19.0 mg/kg/injection, schedule: Q01DX001 (ip), vehicle: other 108 % of control | dose: 38.0 mg/kg/injection, schedule: Q01DX001 (ip), vehicle: other 100 % of control | dose: 75.0 mg/kg/injection, schedule: Q01DX001 (ip), vehicle: other 96 % of control

C1C2OC2CC2OC12 (stereo not drawn)
inactive: [1] 95 % of control | [3] 96 % of control | [5] 95 % of control

c1ccc(-c2ccccc2NC2=NCCO2)cc1
inactive: dose: 12.5 mg/kg/injection, schedule: Q01DX009 (ip), vehicle: saline with Tween-80 100 % of control | [20] 94 % of control | [21] 94 % of control

CN(C)P1(=S)NCCCO1 (stereo not drawn)
inactive: dose: 87.5 mg/kg/injection, schedule: Q01DX009 (ip), vehicle: other 97 % of control | dose: 175.0 mg/kg/injection, schedule: Q01DX009 (ip), vehicle: other 100 % of control | dose: 350.0 mg/kg/injection, schedule: Q01DX009 (ip), vehicle: other 100 % of control

COc1cc([N+](=O)[O-])cc2c1OC1(C=C2)N(C)c2ccccc2C1(C)C (stereo not drawn)
inactive: dose: 25.0 mg/kg/injection, schedule: Q04DX002 (ip), vehicle: gum acacia 111 % of control | dose: 50.0 mg/kg/injection, schedule: Q04DX002 (ip), vehicle: gum acacia 97 % of control and 100 % of control | dose: 100.0 mg/kg/injection, schedule: Q04DX002 (ip), vehicle: gum acacia 100 % of control | dose: 200.0 mg/kg/injection, schedule: Q04DX002 (ip), vehicle: gum acacia 108 % of control

CN(Cc1ccccc1)Cc1cc(CO)ccc1O
inactive: dose: 100.0 mg/kg/injection, schedule: Q01DX001 (ip), vehicle: carboxymethylcellulose (CMC) 103 % of control | dose: 200.0 mg/kg/injection, schedule: Q01DX001 (ip), vehicle: carboxymethylcellulose (CMC) 105 % of control

CCC(CN(C)C)C(=O)c1ccccc1 (stereo not drawn)
inactive: dose: 6.0 mg/kg/injection, schedule: Q01DX009 (ip), vehicle: saline 93 % of control | dose: 12.0 mg/kg/injection, schedule: Q01DX009 (ip), vehicle: saline 91 % of control | [20] 93 % of control | [19] 88 % of control | dose: 25.0 mg/kg/injection, schedule: Q04DX002 (ip), vehicle: saline with Tween-80 100 % of control | [21] 96 % of control | dose: 50.0 mg/kg/injection, schedule: Q04DX002 (ip), vehicle: saline with Tween-80 96 % of control | [1] 93 % of control | dose: 100.0 mg/kg/injection, schedule: Q04DX002 (ip), vehicle: saline with Tween-80 104 % of control

O=C(c1ccccc1)c1cccc2ccccc12
inactive: dose: 50.0 mg/kg/injection, schedule: Q04DX002 (ip), vehicle: Klucel (hydroxypropylcellulose) (HPC) 109 % of control | [10] 105 % of control | [11] 105 % of control | [12] 109 % of control

C=CCC(CO)(c1ccccc1)c1ccccc1
inactive: [21] 97 % of control | [1] 87 % of control | [3] 97 % of control

O=c1ccc([N+](=O)[O-])cn1Cc1ccccc1
inactive: [7] 114 % of control | [1] 106 % of control | [8] 100 % of control | [3] 98 % of control | [9] 96 % of control | [5] 106 % of control

CC(=O)OCC(O)C(O)C(O)C(O)CO (stereo not drawn)
inactive: [2] 91 % of control | [4] 94 % of control | [6] 91 % of control

NCCSc1ccccc1C(=O)O
inactive: [22] 92 % of control | [23] 112 % of control | [24] 102 % of control

C=CCNC(=O)c1ccccc1O
inactive: dose: 100.0 mg/kg/injection, schedule: Q01DX009 (sc), vehicle: olive oil, sesame oil, peanut oil 101 % of control | dose: 100.0 mg/kg/injection, schedule: Q04DX003 (sc), vehicle: olive oil, sesame oil, peanut oil 91 % of control | dose: 200.0 mg/kg/injection, schedule: Q01DX009 (sc), vehicle: olive oil, sesame oil, peanut oil 101 % of control | dose: 200.0 mg/kg/injection, schedule: Q04DX003 (sc), vehicle: olive oil, sesame oil, peanut oil 100 % of control | dose: 400.0 mg/kg/injection, schedule: Q01DX009 (sc), vehicle: olive oil, sesame oil, peanut oil 94 % of control | dose: 400.0 mg/kg/injection, schedule: Q04DX003 (sc), vehicle: olive oil, sesame oil, peanut oil 91 % of control

CCC1(O)CC(OC2CC(N(C)C)C(OC3CC(O)C(O)C(C)O3)C(C)O2)c2c(cc3c(c2O)C(=O)c2c(O)ccc(O)c2C3=O)C1C(=O)OC (stereo not drawn)
inactive: dose: 1.6 mg/kg/injection, schedule: Q01DX001 (ip), vehicle: saline 108 % of control | dose: 3.2 mg/kg/injection, schedule: Q01DX001 (ip), vehicle: saline 104 % of control | dose: 6.4 mg/kg/injection, schedule: Q01DX001 (ip), vehicle: saline 105 % of control

C=C(C)COP(=O)(OCC(=C)C)OCC(=C)C
inactive: [16] 97 % of control | [22] 97 % of control | [17] 100 % of control | [23] 100 % of control | [18] 103 % of control | [24] 92 % of control

CCCCOB1OC(C)CC(C)(C)O1 (stereo not drawn)
inactive: dose: 100.0 mg/kg/injection, schedule: Q01DX001 (ip), vehicle: saline 106 % of control | dose: 200.0 mg/kg/injection, schedule: Q01DX001 (ip), vehicle: saline 97 % of control | dose: 400.0 mg/kg/injection, schedule: Q01DX001 (ip), vehicle: saline 99 % of control
